Experimental data reported in PMC2967836, “Immobilization and Characterization of a Recombinant Thermostable Lipase (Pf2001) from Pyrococcus furiosus on Supports with Different Degrees of Hydrophobicity” (Enzyme Research, 2010).

Target: T1, Pf2001Δ60 (recombinant thermostable lipase Pf2001) (Pyrococcus furiosus, UniProt Q8TZJ1)
T1 construct: expressed in E. coli BL21 (DE3) pLysS; crude extract supernatant
Assay: fluorescence release of 4-methylumbelliferone (ex […] nm, em […] nm)
Type: biochemical
Details: crude extract of E. coli expressing the enzyme; pH 7.0, 50 mM sodium phosphate, 0.1% gum arabic, 70 °C; soluble enzyme (also measured immobilised)

T1 sequence (Q8TZJ1 entry or part of it, stated change not applied): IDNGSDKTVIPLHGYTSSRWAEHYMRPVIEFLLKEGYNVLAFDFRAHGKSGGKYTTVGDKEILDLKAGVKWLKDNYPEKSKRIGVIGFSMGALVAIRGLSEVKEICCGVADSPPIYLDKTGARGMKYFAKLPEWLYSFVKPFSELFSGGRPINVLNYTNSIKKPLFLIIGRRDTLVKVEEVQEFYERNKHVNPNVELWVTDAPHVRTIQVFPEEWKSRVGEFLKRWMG

CCCCCCC(=O)Oc1ccc2c(C)cc(=O)oc2c1 [4-Methylumbelliferyl-heptanoate]
fluorescence release of 4-methylumbelliferone (ex 323 nm, em 448 nm): Enzyme activity was measured according to the method described by Prim et al.
